The record followed here is publication PMC11202142, “Succinimide Derivatives as Acetylcholinesterase Inhibitors—In Silico and In Vitro Studies” (Current Issues in Molecular Biology, 2024).

Data set [1] concerns the target acetylcholinesterase (AChE) (Homo sapiens, UniProt P22303). Nature of the data set: Ellman spectrophotometric assay, Lineweaver-Burk kinetics. The format is biochemical. In general terms: DTNB colorimetry detects thiols as they appear.
Substrate in data set [2]: CC(=O)SCC[N+](C)(C)C
Nature of the data set: Ellman assay, Km from Lineweaver-Burk plot without inhibitor. The format is biochemical, Homo sapiens.

A word on the IC50: it is the concentration that gives 50% inhibition. The low end stands for greater potency in that assay, the high end for weaker potency in that assay. In the case of `CCC12C(=O)C(CC)(C(c3ccccc3)=C1c1ccccc1)C1C(=O)NC(=O)C12` (stereo not shown) [I, diethyl (I) succinimide derivative], 31 ± 3 µM corresponded to half-maximal inhibition in data set [1] (IC50).

The molecule `CC12C(=O)C(C)(C(c3ccccc3)=C1c1ccccc1)C1C(=O)NC(=O)C12` (stereo not shown) [II, dimethyl (II) succinimide derivative] had a 50% inhibitory concentration (IC50) in data set [1] of 29 ± 2 µM.

B1: acetylcholinesterase (AChE) (Homo sapiens) (protein)
chain: EGREDAELLVTVRGGRLRGIRLKTPGGPVSAFLGIPFAEPPMGPRRFLPPEPKQPWSGVVDATTFQSVCYQYVDTLYPGFEGTEMWNPNRELSEDCLYLNVWTPYPRPTSPTPVLVWIYGGGFYSGASSLDVYDGRFLVQAERTVLVSMNYRVGAFGFLALPGSREAPGNVGLLDQRLALQWVQENVAAFGGDPTSVTLFGESAGAASVGMHLLSPPSRGLFHRAVLQSGAPNGPWATVGMGEARRRATQLAHLVGCPPGGTGGNDTELVACLRTRPAQVLVNHEWHVLPQESVFRFSFVPVVDGDFLSDTPEALINAGDFHGLQVLVGVVKDEGSYFLVYGAPGFSKDNESLISRAEFLAGVRVGVPQVSDLAAEAVVLHYTDWLHPEDPARLREALSDVVGDHNVVCPVAQLAGRLAAQGARVYAYVFEHRASTLSWPLWMGVPHGYEIEFIFGIPLDPSRNYTAEEKIFAQRLMRYWANFARTGDPNEPRDPKAPQWPPYTAGAQQYVSLDLRPLEVRRGLRAQACAFWNRFLPKLLSATDTLDEAERQWKAEFHRWSSYMVHWKNQFDHYSKQDRCSDL
What is called Km is the substrate concentration at which the rate is half of its maximum. Usually Vmax stands for the top rate of the reaction or transport when substrate is in excess. In the case of B1, in data set [2], the Km stood at 960 µM and the Vmax stood at 630 µM/min.
